Experimental findings from patent US12351616B2, “Peptides and combination of peptides for use in immunotherapy against esophageal cancer and other cancers” (Immatics Biotechnologies GmbH, priority 2015, dated 2025) are described below.

Test [1] relates to CD8+ T cells. As to the kind of experiment: In vitro T-cell priming assay with aAPCs loaded with peptide/MHC and anti-CD28, pMHC multimer readout. Format: cell-based, human. The settings on record: for Wells positive [%]: Table 10B; for Donors: percentage of positive donors; for Donors / wells: Table 10A; for wells: percentage of positive wells. The source says:
In order to obtain information regarding the immunogenicity of the TUMAPs of the present invention, the inventors performed investigations using an in vitro T-cell priming assay based on repeated stimulations of CD8+ T cells with artificial antigen presenting cells (aAPCs) loaded with peptide/MHC complexes and anti-CD28 antibody.
In order to perform in vitro stimulations by artificial antigen presenting cells loaded with peptide-MHC complex (pMHC) and anti-CD28 antibody, the inventors first isolated CD8+ T cells from fresh HLA-A*02 leukapheresis products via positive selection using CD8 microbeads (Miltenyi Biotec, Bergisch-Gladbach, Germany) of healthy donors obtained from the University clinics Mannheim, Germany, after informed consent.
PBMCs and isolated CD8+ lymphocytes were incubated in T-cell medium (TCM) until use consisting of RPMI-Glutamax (Invitrogen, Karlsruhe, Germany) supplemented with 10% heat inactivated human AB serum (PAN-Biotech, Aidenbach, Germany), 100 U/ml Penicillin/100 μg/ml Streptomycin (Cambrex, Cologne, Germany), 1 mM sodium pyruvate (CC Pro, Oberdorla, Germany), 20 μg/ml Gentamycin (Cambrex). 2.5 ng/ml IL-7 (PromoCell, Heidelberg, Germany) and 10 U/ml IL-2 (Novartis Pharma, Nurnberg, Germany) were also added to the TCM at this step.
Generation of pMHC/anti-CD28 coated beads, T-cell stimulations and readout was performed in a highly defined in vitro system using four different pMHC molecules per stimulation condition and 8 different pMHC molecules per readout condition.
The purified co-stimulatory mouse IgG2a anti human CD28 Ab 9.3 (Jung et al., 1987) was chemically biotinylated using Sulfo-N-hydroxysuccinimidobiotin as recommended by the manufacturer (Perbio, Bonn, Germany). Beads used were 5.6 μm diameter streptavidin coated polystyrene particles (Bangs Laboratories, Illinois, USA).
800.000 beads/200 μl were coated in 96-well plates in the presence of 4×12.5 ng different biotin-pMHC, washed and 600 ng biotin anti-CD28 were added subsequently in a volume of 200 μl. Stimulations were initiated in 96-well plates by co-incubating 1×10^6 CD8+ T cells with 2×10^5 washed coated beads in 200 μl TCM supplemented with 5 ng/ml IL-12 (PromoCell) for 3 days at 37° C. Half of the medium was then exchanged by fresh TCM supplemented with 80 U/ml IL-2 and incubating was continued for 4 days at 37° C. This stimulation cycle was performed for a total of three times. For the pMHC multimer readout using 8 different pMHC molecules per condition, a two-dimensional combinatorial coding approach was used as previously described (Andersen et al., 2012) with minor modifications encompassing coupling to 5 different fluorochromes. Finally, multimeric analyses were performed by staining the cells with Live/dead near IR dye (Invitrogen, Karlsruhe, Germany), CD8-FITC antibody clone SK1 (BD, Heidelberg, Germany) and fluorescent pMHC multimers. For analysis, a BD LSRII SORP cytometer equipped with appropriate lasers and filters was used. Peptide specific cells were calculated as percentage of total CD8+ cells. Evaluation of multimeric analysis was done using the FlowJo software (Tree Star, Oregon, USA). In vitro priming of specific multimer+CD8+ lymphocytes was detected by comparing to negative control stimulations.

The target of test [2] is HLA-A*02:01 (Homo sapiens, UniProt P04439, D140Y/D185E/D98H/E176V/E277Q/G131W/G231S/I119V/I121R/I166T/I218V/L300P/L318F/N151K/N90K/P208A/P217A/Q86G/Q94H/R138H/R169H/T345S). In words: MHC binding assay: UV-ligand exchange with β2m ELISA. As to conditions: peptide exchange yield, binding to HLA-A*02:01. The source says:
Candidate peptides for T cell based therapies according to the present invention were further tested for their MHC binding capacity (affinity). The individual peptide-MHC complexes were produced by UV-ligand exchange, where a UV-sensitive peptide is cleaved upon UV-irradiation, and exchanged with the peptide of interest as analyzed. Only peptide candidates that can effectively bind and stabilize the peptide-receptive MHC molecules prevent dissociation of the MHC complexes. To determine the yield of the exchange reaction, an ELISA was performed based on the detection of the light chain (β2m) of stabilized MHC complexes. The assay was performed as generally described in Rodenko et al. (Rodenko et al., 2006).
96 well MAXISorp plates (NUNC) were coated over night with 2 ug/ml streptavidin in PBS at room temperature, washed 4× and blocked for 1 h at 37° C. in 2% BSA containing blocking buffer. Refolded HLA-A*02:01/MLA-001 monomers served as standards, covering the range of 15-500 ng/ml. Peptide-MHC monomers of the UV-exchange reaction were diluted 100 fold in blocking buffer. Samples were incubated for 1 h at 37° C., washed four times, incubated with 2 ug/ml HRP conjugated anti-β2m for 1 h at 37° C., washed again and detected with TMB solution that is stopped with […]. Absorption was measured at 450 nm. Candidate peptides that show a high exchange yield (preferably higher than 50%, most preferred higher than 75%) are generally preferred for a generation and production of antibodies or fragments thereof, and/or T cell receptors or fragments thereof, as they show sufficient avidity to the MHC molecules and prevent dissociation of the MHC complexes.
On the technique in general: In an ELISA, binding on a coated surface is turned into a signal by an enzyme label.

Regarding “29 (SLDGTELQL; listed as Homo sapiens) [compound 29]”, in test [1], the “Wells positive [%]” value is “+ (<20% = +)”. Besides, the Peptide exchange result in test [2] is listed as “+++ (≥50 = +++)”. As for “101 (AMTQLLAGV; listed as Homo sapiens) [compound 101]”, in test [1], the Donors entry is recorded as “+++ (50%-69% = +++)” and the wells result was “++ (20%-49% = ++)”. On to “5 (NLMASQPQL; listed as Homo sapiens) [compound 5]”, for which the “Wells positive [%]” value in test [1] is recorded as “+++ (50%-69% = +++)”. Further, the Peptide exchange entry in test [2] is “+++ (≥50 = +++)”. In the same order, the values of “77 (VLVPYEPPQV; listed as Homo sapiens) [compound 77]” are “+ (<20% = +)” and “++ (≥20% = ++)”. On to “97 (ELDRTPPEV; listed as Homo sapiens) [compound 97]”, for which, in test [1], the Donors entry is “++++ (>= 70% = ++++)” and the wells entry is given as “++ (20%-49% = ++)”.

For the substance “6 (LLSGDLIFL; listed as Homo sapiens) [compound 6]”, the “Wells positive [%]” value in test [1] was “++ (20%-49% = ++)”. The Peptide exchange entry in test [2] is “+++ (≥50 = +++)”. Regarding “98 (VLFPNLKTV; listed as Homo sapiens) [compound 98]”, in test [1], the Donors result was “++++ (>= 70% = ++++)” and the wells entry is “+ (<20% = +)”. In the case of “95 (LIQDRVAEV; listed as Homo sapiens) [compound 95]”, in test [1], the Donors entry was “++ (20%-49% = ++)” and the wells entry is “+ (<20% = +)”. Turning to “1 (STYGGGLSV; listed as Homo sapiens) [compound 1]”, the “Wells positive [%]” value in test [1] was “+ (<20% = +)”. Further, in test [2], the Peptide exchange entry was “+++ (≥50 = +++)”. Turning to “19 (GLAPFLLNAV; listed as Homo sapiens) [compound 19]”, the “Wells positive [%]” value in test [1] is “+ (<20% = +)”. In addition, the Peptide exchange result in test [2] was “+++ (≥50 = +++)”. In the same order, the values of “12 (GLASRILDA; listed as Homo sapiens) [compound 12]” are “+ (<20% = +)” and “+++ (≥50 = +++)”. For “2 (SLYNLGGSKRISI; listed as Homo sapiens) [compound 2]”, the “Wells positive [%]” value in test [1] is “+ (<20% = +)”. Further, the Peptide exchange entry in test [2] is “++++ (≥75% = ++++)”. For “47 (VLASGFLTV; listed as Homo sapiens) [compound 47]”, the “Wells positive [%]” value in test [1] is reported as “+++ (50%-69% = +++)”. In test [2], the Peptide exchange result is given as “++++ (≥75% = ++++)”. In the case of “94 (TLLQEQGTKTV; listed as Homo sapiens) [compound 94]”, in test [1], the Donors result was “++ (20%-49% = ++)” and the wells result is “+ (<20% = +)”. Regarding “69 (GLLVGSEKVTM; listed as Homo sapiens) [compound 69]”, the “Wells positive [%]” value in test [1] was “+ (<20% = +)”. Moreover, in test [2], the Peptide exchange entry was “+++ (≥50 = +++)”. On to “15 (LLANGVYAA; listed as Homo sapiens) [compound 15]”, for which the Peptide exchange entry in test [2] is “+ (≥10% = +)”.

In the case of “64 (GLTDVIRDV; listed as Homo sapiens) [compound 64]”, in test [2], the Peptide exchange entry is recorded as “++++ (≥75% = ++++)”. The same measure, in the same setting: with “59 (SLLDTLREV; listed as Homo sapiens) [compound 59]” the entry was “+++ (≥50 = +++)”. Still for that read-out and setting: in the case of “52 (VAIGGVDGNVRL; listed as Homo sapiens) [compound 52]” it was “++ (≥20% = ++)”. Still for that read-out and setting: in the case of “48 (SMHQMLDQTL; listed as Homo sapiens) [compound 48]” it was “++ (≥20% = ++)”; in that of “30 (SLNGNQVTV; listed as Homo sapiens) [compound 30]”, “+ (≥10% = +)”; in that of “46 (YTAQIGADIAL; listed as Homo sapiens) [compound 46]”, “+++ (≥50 = +++)”. “22 (KLNDTYVNV; listed as Homo sapiens) [compound 22]”: the Peptide exchange result in test [2] is on record as “+++ (≥50 = +++)”. As for “37 (YTQPFSHYGQAL; listed as Homo sapiens) [compound 37]”, in test [2], the Peptide exchange result is recorded as “+++ (≥50 = +++)”. Still for that read-out and setting: with “74 (ILASLATSV; listed as Homo sapiens) [compound 74]” the entry was “+++ (≥50 = +++)”.
